Assay results as given in patent publication US20250382287A1, “PHARMACEUTICALLY ACCEPTABLE SALT AND CRYSTAL FORM OF NITROGEN-CONTAINING BRIDGE HETEROCYCLIC DERIVATIVE, AND METHOD FOR PREPARING SAME” (JIANGSU HENGRUI PHARMACEUTICALS CO., LTD., priority 2022, published 2025).

Tests used:
[1] = target: T1, Factor B enzyme (recombinant human complement factor B protein, as CVF:Bb complex) (Homo sapiens, UniProt P00751); details: biological evaluation in Application No. WO2022143845; cited from earlier work
T1 construct: host or cells: HD CHO-S cells, pcDNA3.4 vector
T1 sequence (P00751 260-764 limits assumed): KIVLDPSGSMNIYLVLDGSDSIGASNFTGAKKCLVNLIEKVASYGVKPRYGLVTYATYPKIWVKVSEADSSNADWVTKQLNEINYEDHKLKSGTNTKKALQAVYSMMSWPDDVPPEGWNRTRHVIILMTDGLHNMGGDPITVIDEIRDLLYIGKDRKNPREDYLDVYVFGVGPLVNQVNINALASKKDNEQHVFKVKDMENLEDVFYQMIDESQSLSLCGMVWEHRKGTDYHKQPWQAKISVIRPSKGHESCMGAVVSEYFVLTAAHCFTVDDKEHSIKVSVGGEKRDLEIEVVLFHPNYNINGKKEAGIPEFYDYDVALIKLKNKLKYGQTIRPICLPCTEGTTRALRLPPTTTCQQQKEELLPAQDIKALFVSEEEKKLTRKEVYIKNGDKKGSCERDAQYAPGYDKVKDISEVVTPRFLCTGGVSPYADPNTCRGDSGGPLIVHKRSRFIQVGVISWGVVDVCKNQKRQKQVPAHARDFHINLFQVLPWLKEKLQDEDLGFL
T1 sequence (Q91132 23-649 partner limits assumed): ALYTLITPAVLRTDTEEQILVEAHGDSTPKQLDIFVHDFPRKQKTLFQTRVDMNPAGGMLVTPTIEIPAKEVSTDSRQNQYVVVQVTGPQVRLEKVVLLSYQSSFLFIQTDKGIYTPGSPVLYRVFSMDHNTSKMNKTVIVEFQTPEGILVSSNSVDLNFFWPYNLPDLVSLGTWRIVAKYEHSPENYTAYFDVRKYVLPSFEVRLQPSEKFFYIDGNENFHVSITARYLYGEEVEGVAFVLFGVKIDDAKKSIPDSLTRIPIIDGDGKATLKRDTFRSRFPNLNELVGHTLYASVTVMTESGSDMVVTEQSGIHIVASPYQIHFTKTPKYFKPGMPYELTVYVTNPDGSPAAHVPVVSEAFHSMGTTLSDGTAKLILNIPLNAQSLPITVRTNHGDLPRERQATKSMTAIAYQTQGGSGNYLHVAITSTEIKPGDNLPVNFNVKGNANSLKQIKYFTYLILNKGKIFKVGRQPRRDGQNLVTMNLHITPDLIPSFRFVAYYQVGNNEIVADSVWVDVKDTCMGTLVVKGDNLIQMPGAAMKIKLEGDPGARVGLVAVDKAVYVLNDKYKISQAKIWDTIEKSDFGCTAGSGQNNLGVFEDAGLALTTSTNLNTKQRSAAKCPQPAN
T1 sequence (Q91132 733-984 partner limits assumed): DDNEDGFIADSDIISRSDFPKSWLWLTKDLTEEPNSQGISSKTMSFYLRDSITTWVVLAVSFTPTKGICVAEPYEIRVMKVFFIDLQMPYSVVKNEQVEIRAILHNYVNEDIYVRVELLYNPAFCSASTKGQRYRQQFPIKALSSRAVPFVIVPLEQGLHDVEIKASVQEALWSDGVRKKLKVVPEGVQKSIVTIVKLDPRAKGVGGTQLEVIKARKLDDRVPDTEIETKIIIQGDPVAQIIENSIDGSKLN
T1 sequence (Q91132 1264-1642 partner limits assumed): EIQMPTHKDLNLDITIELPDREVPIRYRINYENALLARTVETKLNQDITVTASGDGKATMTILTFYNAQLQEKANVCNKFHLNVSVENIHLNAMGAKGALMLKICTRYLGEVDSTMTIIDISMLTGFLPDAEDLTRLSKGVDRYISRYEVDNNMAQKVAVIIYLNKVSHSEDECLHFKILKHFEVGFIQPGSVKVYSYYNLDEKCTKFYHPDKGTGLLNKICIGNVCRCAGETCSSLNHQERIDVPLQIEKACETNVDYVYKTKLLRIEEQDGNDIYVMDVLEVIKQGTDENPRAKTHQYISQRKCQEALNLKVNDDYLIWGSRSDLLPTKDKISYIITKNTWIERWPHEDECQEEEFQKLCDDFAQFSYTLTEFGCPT

[2] = Influencing factor stability (open flasks, light, high temperature, high humidity, 30 days)
[3] = DVS (dynamic vapor sorption) hygroscopicity testing; type: physicochemical
Method: DVS refers to dynamic vapor sorption: Surface Measurement Systems instrinsic was adopted; the humidity started at 50%, the humidity range investigated was 0%-95%, and the humidity was increased in increments of 10%; the criterion was that each gradient mass change dM/dT is less than 0.002%, TMAX 360 min, two cycles.

[4] = Long-term/accelerated stability (sealed, 25° C./60% RH and 40° C./75% RH)
[5] = Light exposure (4500 Lux), 5 days, open flask
[6] = Light exposure (4500 Lux), 10 days, open flask
[7] = Light exposure (4500 Lux), 30 days, open flask
[8] = 25° C./60% RH and 40° C./75% RH, 6 months

CCO[C@H]1C[C@H]2CC[C@@](c3ccc(C(=O)O)cc3)(C1)N2Cc1c(OC)cc(C)c2[nH]ccc12 [compound I, 4-((1S,3S,5R)-3-ethoxy-8-((5-methoxy-7-methyl-1H-indol-4-yl)methyl)-8-azabicyclo[3.2.1]octan-1-yl)benzoic acid]
inhibitory effect on the enzyme activity of Factor B [1]: relatively good inhibitory effect

CCO[C@H]1C[C@H]2CC[C@@](c3ccc(C(=O)O)cc3)(C1)N2Cc1c(OC)cc(C)c2[nH]ccc12.Cl [crystal form III of the hydrochloride, 4-((1S,3S,5R)-3-ethoxy-8-((5-methoxy-7-methyl-1H-indol-4-yl)methyl)-8-azabicyclo[3.2.1]octan-1-yl)benzoic acid-hydrochloride]
Color and state ([2]; 40° C., 5 days, open flask): White solid
Purity % ([2]; 40° C., 5 days, open flask): 99.6%
Salt form ([2]; 40° C., 5 days, open flask): No change
Color and state ([2]; 40° C., 10 days, open flask): White solid
Purity % ([2]; 40° C., 10 days, open flask): 99.4%
Salt form ([2]; 40° C., 10 days, open flask): No change
Color and state ([2]; 40° C., 30 days, open flask): White solid
Purity % ([2]; 40° C., 30 days, open flask): 99.0%
Salt form ([2]; 40° C., 30 days, open flask): No change
Color and state ([2]; 60° C., 5 days, open flask): White solid
Purity % ([2]; 60° C., 5 days, open flask): 99.3%
Salt form ([2]; 60° C., 5 days, open flask): No change
Color and state ([2]; 60° C., 10 days, open flask): White solid
Purity % ([2]; 60° C., 10 days, open flask): 99.1%
Salt form ([2]; 60° C., 10 days, open flask): No change
Color and state ([2]; 60° C., 30 days, open flask): White solid
Purity % ([2]; 60° C., 30 days, open flask): 98.5%
Salt form ([2]; 60° C., 30 days, open flask): No change
Color and state ([2]; 75% RH, 5 days, open flask): White solid
Purity % ([2]; 75% RH, 5 days, open flask): 99.6%
Salt form ([2]; 75% RH, 5 days, open flask): No change
Color and state ([2]; 75% RH, 10 days, open flask): White solid
Purity % ([2]; 75% RH, 10 days, open flask): 99.6%
Salt form ([2]; 75% RH, 10 days, open flask): No change
Color and state ([2]; 75% RH, 30 days, open flask): White solid
Salt form ([2]; 75% RH, 30 days, open flask): No change
Color and state ([2]; 92.5% RH, 5 days, open flask): White solid
Salt form ([2]; 92.5% RH, 5 days, open flask): No change
Color and state ([2]; 92.5% RH, 10 days, open flask): White solid
Salt form ([2]; 92.5% RH, 10 days, open flask): No change
Color and state ([2]; 92.5% RH, 30 days, open flask): White solid
Salt form ([2]; 92.5% RH, 30 days, open flask): No change
Color and state ([2]; Initial, 0 days): White solid
Salt form ([2]; Initial, 0 days): Crystal form
Color and state [2, 5]: White solid
Purity % [2, 5]: 99.2%
Salt form [2, 5]: No change
Color and state [2, 6]: White solid
Purity % [2, 6]: 98.4%
Salt form [2, 6]: No change
Color and state [2, 7]: White solid
Purity % [2, 7]: 96.2%
Salt form [2, 7]: No change
chemical stability under high humidity conditions ([2]; high humidity conditions only, 30 days): good
physical stability ([2]; light exposure (4500 Lux), 40° C. and 60° C., high humidity RH 75% and 92.5%, 30 days): good
hygroscopic weight gain under normal storage conditions ([3]; DVS, 25° C. and 60% RH): about 2.57%
hygroscopic weight gain under accelerated experimental conditions ([3]; DVS, 70% RH): about 2.960%
hygroscopic weight gain under extreme conditions ([3]; DVS, 90% RH): about 4.5700%
crystal form re-identification after DVS testing ([3]; XRPD after DVS): did not change
Purity % ([4]; 25° C., 60% RH, sealed, 1 month): 99.6%
Purity % ([4]; 25° C., 60% RH, sealed, 2 months): 99.6%
Purity % ([4]; 25° C., 60% RH, sealed, 3 months): 99.6%
Purity % ([4]; 25° C., 60% RH, sealed, 6 months): 99.6%
chemical stability [4, 8]: good
physical stability [4, 8]: good
Purity % ([4]; 40° C., 75% RH, sealed, 1 month): 99.6%
Purity % ([4]; 40° C., 75% RH, sealed, 2 months): 99.5%
Purity % ([4]; 40° C., 75% RH, sealed, 3 months): 99.5%
Purity % ([4]; 40° C., 75% RH, sealed, 6 months): 99.4%
Purity % ([4]; Initial): 99.6%
